Experimental data from publication PMC3731988 (Molecular microbiology, 2013).

Biological target: T1, threonine dehydrogenase (Tdh) (Escherichia coli, UniProt P07913)
T1 sequence (P07913 1-341): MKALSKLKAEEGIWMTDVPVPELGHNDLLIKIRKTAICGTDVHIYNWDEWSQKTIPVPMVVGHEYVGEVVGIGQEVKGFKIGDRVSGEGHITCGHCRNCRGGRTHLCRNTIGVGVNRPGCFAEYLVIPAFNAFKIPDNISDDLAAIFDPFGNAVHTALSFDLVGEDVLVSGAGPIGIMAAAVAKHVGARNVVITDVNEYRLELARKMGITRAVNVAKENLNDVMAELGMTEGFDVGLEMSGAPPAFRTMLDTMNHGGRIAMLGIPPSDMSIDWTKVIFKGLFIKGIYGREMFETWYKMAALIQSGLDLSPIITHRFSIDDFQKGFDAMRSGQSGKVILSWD
Experiment: NADH formation at […] nm
Assay type: biochemical
Details: Fe(II)-loaded enzyme; 30 mM threonine, 1 mM NAD+, 50 mM Tris-HCl pH 8.4, 25 °C, anaerobic

C[C@@H](O)[C@H](N)C(=O)O [threonine]
NADH formation at 340 nm: Tdh oxidizes threonine, with the production of NADH that can be monitored
